# Reference: patent US20080255192A1, “Methods and Compositions for Selectin Inhibition” (Wyeth, priority 2007, published 2008)
# Biological target: T1, P-selectin/PSGL-1 interaction (Homo sapiens, UniProt P16109)
# T1 construct: comprised of the lectin and epidermal growth factor-like (EGF) domains expressed in CHO cells; made in house; host or cells: CHO cells (P-LE)
# T1 sequence (P16109 42-198): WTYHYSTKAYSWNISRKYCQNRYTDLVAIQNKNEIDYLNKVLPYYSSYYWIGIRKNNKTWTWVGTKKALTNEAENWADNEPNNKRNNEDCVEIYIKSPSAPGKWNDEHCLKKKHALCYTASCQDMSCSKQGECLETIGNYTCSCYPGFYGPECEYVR
# Test: Biacore P-Selectin/PSGL-1 Inhibition Assay (surface plasmon resonance)
# Assay type: binding
# Conditions: 250 uM test compound, 500 nM P.LE, immobilized PSGL-1 19ek, 10% DMSO, pH 7.4
# Procedure: Surface plasmon resonance assays were performed on a Biacore 3000 instrument (Biacore Inc. Piscataway, N.J.) at 25° C. at a flow rate of 30 μL/minute and each assay consisted of a 60-second equilibration, a 60-μL sample injection (kinject), and a 300-second dissociation.
# A purified, monomeric, truncated form of human PSGL-1, “19ek”, that contained all the necessary P-selectin binding determinants (see Goetz, et al., J. Cell Biol., 1997, 137: 509-519; and Sako, et al., Cell, 1995, 83: 323-331) was biotinylated via amine chemistry (Sulfo-NHS-LC-Biotin, Peirce) at a unique C-terminal lysine residue (see Somers, et al., Cell, 2000, 103: 467-479) and immobilized on a Biacore SA sensor chip (Biacore Inc.), using an HBS-EP buffer (Biacore Inc.), and the target 600-700 RU. The coated chip was re-equilibrated with an HBS-P buffer (Biacore Inc.) to which 1 mM CaCl2 and 1 mM MgCl2 (both from Fisher) were added to ensure sufficient calcium for the calcium-dependent interaction between the receptor and the ligand.
# Test compounds were incubated for 1 hour in a 1.1× Biacore assay buffer. Each solution was centrifuged through a 0.2 µm filter, using a 96-well plate format (Millipore). Glycyrrhizin tri-sodium salt (TCI) was prepared as a positive control in parallel with the test compounds, in the same manner described above.
# A soluble recombinant truncated form of human P-selectin, P-LE, comprised of the lectin and epidermal growth factor-like (EGF) domains expressed in CHO cells (see Somers, et al., Cell, 2000, 103: 467-479) was added to each filtered test compound solution. Final concentrations of reagents were 500 nM P.LE, 250 or 500 μM test compound (depending on structure) or 1 mM glycyrrhizin, 10% DMSO, and 1× Biacore buffer ([…], 150 mM NaCl, 1 mM CaCl2, and 1 mM MgCl2 (all reagents from Fisher)), with a pH of 7.4. Compounds active at 250 μM were titrated to further define activity. Test samples were supplied to the Biacore instrument in a 96-well plate.
# The Biacore raw data file was exported as a text file to an Excel spreadsheet, where the buffer blanks bracketing the samples were averaged for each Biacore instrument flow cell (Fc), and subtracted from the averaged uninhibited P.LE samples and from all the other samples. The reference signal from Fcl (uncoated) was then subtracted from its corresponding active (coated) signal for each injection, a process known as double referencing (see Myszka, J. Mol. Recognit., 1999, 12(5): 279-284). The percent inhibition of binding was calculated by dividing the reference-subtracted inhibited signal by the reference-subtracted uninhibited signal, subtracting this value from 1, and multiplying the resulting value by 100. The replicate percent inhibition values were averaged and expressed as the mean ±standard deviation. The inter-experiment standard deviation of calculated percent inhibitions in the Biacore assay was ±5.
row,SMILES,inhibition at 250 µM [%]
1,"O=C(O)c1c(O)c(C2(c3ccc(Br)cc3)CC2)nc2c(C(F)(F)F)cccc12 [Compound 53, 2-(1-(4-bromophenyl)cyclopropyl)-3-hydroxy-8-(trifluoromethyl)quinoline-4-carboxylic acid]",64
2,"O=C(O)c1c(O)c(C2(c3cccc(C(F)(F)F)c3)CC2)nc2c(C(F)(F)F)cccc12 [Compound 57, 3-hydroxy-8-(trifluoromethyl)-2-(1-(3-(trifluoromethyl)phenyl)cyclopropyl)quinoline-4-carboxylic acid]",42
3,"O=C(O)c1c(O)c(C2(c3ccc(Cl)cc3)CC2)nc2ccc(F)cc12 [Compound 17, 2-(1-(4-chlorophenyl)cyclopropyl)-6-fluoro-3-hydroxyquinoline-4-carboxylic acid]",≤ 10
4,"O=C(O)c1c(O)c(C2(c3ccc(Cl)cc3)CC2)nc2ccccc12 [Compound 8, 2-(1-(4-chlorophenyl)cyclopropyl)-3-hydroxyquinoline-4-carboxylic acid]",≤ 10
5,"CC(C)c1ccc2nc(C3(c4ccc(Cl)cc4)CC3)c(O)c(C(=O)O)c2c1 [Compound 25, 2-(1-(4-chlorophenyl)cyclopropyl)-3-hydroxy-6-isopropylquinoline-4-carboxylic acid]",14
6,"O=C(O)c1c(O)c(C2(c3ccc(Cl)cc3)CC2)nc2c(-c3ccccc3)cccc12 [Compound 6, 2-(1-(4-chlorophenyl)cyclopropyl)-3-hydroxy-8-phenylquinoline-4-carboxylic acid]",98
7,"O=C(O)c1c(O)c(C2(c3ccc(Cl)cc3)CC2)nc2c(Br)cccc12 [Compound 9, 8-bromo-2-(1-(4-chlorophenyl)cyclopropyl)-3-hydroxyquinoline-4-carboxylic acid]",46
8,"O=C(O)c1c(O)c(C2(c3ccc(Cl)cc3)CC2)nc2ccc(O)cc12 [Compound 23, 2-(1-(4-chlorophenyl)cyclopropyl)-3,6-dihydroxyquinoline-4-carboxylic acid]",≤ 10
9,"Cc1cccc2c(C(=O)O)c(O)c(C3(c4ccc(Cl)cc4)CC3)nc12 [Compound 11, 2-(1-(4-chlorophenyl)cyclopropyl)-3-hydroxy-8-methylquinoline-4-carboxylic acid]",43
10,"O=C(O)c1c(O)c(C2(c3ccccc3)CC2)nc2c(OC(F)(F)F)cccc12 [Compound 46, 3-hydroxy-2-(1-phenylcyclopropyl)-8-(trifluoromethoxy)quinoline-4-carboxylic acid]",≤ 10
11,"O=C(O)c1c(O)c(C2(c3ccc(Cl)cc3)CC2)nc2ccc(C(F)(F)F)cc12 [Compound 24, 2-(1-(4-chlorophenyl)cyclopropyl)-3-hydroxy-6-(trifluoromethyl)quinoline-4-carboxylic acid]",34
12,"COc1ccc2nc(C3(c4ccc(Cl)cc4)CC3)c(O)c(C(=O)O)c2c1 [Compound 20, 2-(1-(4-chlorophenyl)cyclopropyl)-3-hydroxy-6-methoxyquinoline-4-carboxylic acid]",≤ 10
13,"O=C(O)c1c(O)c(C2(c3ccccc3)CC2)nc2c(Cl)cccc12 [Compound 47, 8-chloro-3-hydroxy-2-(1-phenylcyclopropyl)quinoline-4-carboxylic acid]",≤ 10

# Further lines, results first:
row,inhibition at 250 µM [%],SMILES
1,49,"Cc1ccc2c(C(=O)O)c(O)c(C(C)Cc3ccccc3)nc2c1C (stereo not shown) [Compound 134, 3-Hydroxy-7,8-dimethyl-2-(1-phenylpropan-2-yl)quinoline-4-carboxylic acid]"
2,59,"O=C(O)c1c(O)c(C2(c3ccc(F)cc3)CC2)nc2c3c(ccc12)CCCC3 [Compound 80, 2-(1-(4-fluorophenyl)cyclopropyl)-3-hydroxy-7,8,9,10-tetrahydrobenzo[h]quinoline-4-carboxylic acid]"
3,23,"Cc1ccc2c(C(=O)O)c(O)c(C3(c4ccc(F)cc4)CC3)nc2c1C [Compound 81, 2-(1-(4-fluorophenyl)cyclopropyl)-3-hydroxy-7,8-dimethylquinoline-4-carboxylic acid]"
4,15,"O=C(O)c1c(O)c(C2(c3cccs3)CC2)nc2c(C(F)(F)F)cccc12 [Compound 60, 3-hydroxy-2-(1-(thiophen-2-yl)cyclopropyl)-8-(trifluoromethyl)quinoline-4-carboxylic acid]"
5,65,"CCC(c1ccccc1)c1nc2c(C(C)C)cccc2c(C(=O)O)c1O (stereo not shown) [Compound 127, 3-Hydroxy-8-isopropyl-2-(1-phenylpropyl)quinoline-4-carboxylic acid]"
6,20,"Cc1cc(C)c2nc(C3(c4ccccc4)CC3)c(O)c(C(=O)O)c2c1 [Compound 64, 3-hydroxy-6,8-dimethyl-2-(1-phenylcyclopropyl)quinoline-4-carboxylic acid]"
7,≤ 10,"O=C(O)c1c(O)c(C2(c3ccc(Cl)cc3)CC2)nc2c(-c3ccccc3)cc(C(F)(F)F)cc12 [Compound 100, 2-(1-(4-chlorophenyl)cyclopropyl)-3-hydroxy-8-phenyl-6-(trifluoromethyl)quinoline-4-carboxylic acid]"
8,13,"O=C(O)c1c(O)c(C2(c3ccccc3)CC2)nc2c(C3CC3)cccc12 [Compound 110, 8-cyclopropyl-3-hydroxy-2-(1-phenyl-cyclopropyl)-quinoline-4-carboxylic acid]"
9,40,"Cc1cc(C(F)(F)F)cc2c(C(=O)O)c(O)c(C3(c4ccc(Cl)cc4)CC3)nc12 [Compound 97, 2-(1-(4-chlorophenyl)cyclopropyl)-3-hydroxy-8-methyl-6-(trifluoromethyl)quinoline-4-carboxylic acid]"
10,43,"O=C(O)c1c(O)c(C2(Cc3ccccc3)CC2)nc2c(C(F)(F)F)cccc12 [Compound 112, 2-(1-benzyl-cyclopropyl)-3-hydroxy-8-trifluoromethyl-quinoline-4-carboxylic acid]"
11,≤ 10,"CC(C)c1cccc2c(C(=O)O)c(O)c(C(C)(C)c3ccc(Cl)cc3)nc12 [Compound 118, 2-(2-(4-Chlorophenyl)propan-2-yl)-3-hydroxy-8-isopropylquinoline-4-carboxylic acid]"
12,33,"O=C(O)c1c(O)c(C2(c3ccc(C(F)(F)F)cc3)CC2)nc2c3c(ccc12)CCCC3 [Compound 93, 3-hydroxy-2-(1-(4-(trifluoromethyl)phenyl)cyclopropyl)-7,8,9,10-tetrahydrobenzo[h]quinoline-4-carboxylic acid]"
13,56,"Cc1ccc2c(C(=O)O)c(O)c(C(C)(C)c3ccc(Cl)cc3)nc2c1C [Compound 121, 2-(2-(4-Chlorophenyl)propan-2-yl)-3-hydroxy-7,8-dimethylquinoline-4-carboxylic acid]"
14,59,"Cc1ccc(C2(c3nc4c(C(O)(C(F)(F)F)C(F)(F)F)cccc4c(C(=O)O)c3O)CC2)cc1 [Compound 85, 8-(1,1,1,3,3,3-hexafluoro-2-hydroxypropan-2-yl)-3-hydroxy-2-(1-p-tolylcyclopropyl)quinoline-4-carboxylic acid]"
15,≤ 10,"COc1ccc2nc(C3(c4ccc(F)cc4)CC3)c(O)c(C(=O)O)c2c1 [Compound 79, 2-(1-(4-fluorophenyl)cyclopropyl)-3-hydroxy-6-methoxyquinoline-4-carboxylic acid]"
16,≤ 10,"O=C(O)c1c(O)c(C2(c3ccc(F)cc3)CC2)nc2c(Cl)cccc12 [Compound 73, 8-chloro-2-(1-(4-fluorophenyl)cyclopropyl)-3-hydroxyquinoline-4-carboxylic acid]"
17,41,O=C(O)c1c(O)c(C2(c3ccccc3)CC2)nc2c(C(F)(F)F)cc(C(F)(F)F)cc12 [Compound 106]
18,≤ 10,"O=C(O)c1c(O)c(C2(c3ccc(Cl)cc3)CC2)nc2c(C(F)(F)F)cc(-c3ccccc3)cc12 [Compound 96, 2-(1-(4-chlorophenyl)cyclopropyl)-3-hydroxy-6-phenyl-8-(trifluoromethyl)quinoline-4-carboxylic acid]"
